Laboratory results taken from patent publication US20190046446A1, “APO-E MODIFIED LIPID NANOPARTICLES FOR DRUG DELIVERY TO TARGETED TISSUES AND THERAPEUTIC METHODS” (Eriochem USA, LLC, priority 2016, published 2019).
Where two headings read alike, the source gives them in different places.

How the values were obtained:
[1] = Pharmacokinetics of Docetaxel in plasma of rabbits; assay type: in vivo, New Zealand rabbits; settings: iv, 2.5 mg/kg DCX; for half-life: New Zealand, rabbit, 2.5 mg/kg
Method: Changes in plasma drug concentration reflect changes in drug concentrations at the receptor site, as well as in other tissues.
The formulations were administered intravenously at doses equivalent to 2.5 mg/kg of DCX in each. […] Blood samples were taken at 0.5, 2, 8, and 24 hours from each animal in Groups A and C, and at 1, 4, 12, and 32 hours for each animal in Groups B and D. Then, the samples were pre-treated for analysis—the proteins were precipitated with acetonitrile and then extracted with a solid phase (SPE), evaporated, and resuspended for analysis. […] Any adjustment of the experimental data was performed by weighted nonlinear regression of at least squares using a bi-exponential descriptive model.
For this study, kd and kel were interpreted as the first order apparent distribution and elimination constants, respectively, and C1 and C2 were the coefficients of the adjustment model.
From the estimated values of C1, kd, C2, and kel, the following pharmacokinetic parameters were calculated, as shown in Table 10 below.
Clearance (CI) refers to the volume of blood that has completely cleared of the drug/unit time when it passes through a clearing organ.

[2] = In vitro drug release by dialysis against human plasma; assay type: in vitro ADME; settings: dialysis against 10% human plasma, 37° C., up to 72 hours
Method: Drug release kinetics were evaluated in vitro by comparing solutions containing:
The respective solution samples were placed in 12 KDa dialysis bags and dialyzed against a 10% V/V solution of human plasma for 72 hours at 37° C. in an orbital shaker with constant agitation at 60 rpm. Assays were then performed in triplicate, with samples taken from each solution at 0, 1, 2, 3, 6, 9, 24, 48, and 72 hours after dialysis initiation. […] The recovered organic phase was dried in a rotary evaporator, and the obtained dry material was resuspended in acetonitrile for further HPLC analysis.

New Zealand rabbits = assay: Blood counts (hemogram) in rabbits; settings: iv, 3 cycles every 7 days;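 further: compound given into the marginal ear vein under ketamine-xylazine-acepromazine anesthesia, blood drawn from the ear central artery after sedation, seven samplings from one day before to day 20 after first dose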
Method: The intravenous administration was performed in the marginal ear vein and previously rabbits underwent anesthesia intramuscular injection by a combination of Ketamine-Xylazine-Acepromazine (2.4 mg/kg acepromazine, 48 mg/kg Ketamine and 5 mg/kg xylazine)
Blood samples were taken from the central artery of the ear, after sedation. A total of 7 samples were taken for each rabbit, and samples were taken a day before the first doses (−1), and on days 1, 6, 8, 13, 15 and 20 after the first dose.

What does the source list for CC(=O)O[C@@]12CO[C@@H]1C[C@H](O)[C@@]1(C)C(=O)[C@H](O)C3=C(C)[C@@H](OC(=O)[C@H](O)[C@@H](NC(=O)OC(C)(C)C)c4ccccc4)C[C@@](O)([C@@H](OC(=O)c4ccccc4)[C@H]21)C3(C)C [TAXOTERE, Docetaxel]?
half-life ([1]; read-out: t1/2e1: Elimination half-life (converted)): 19.7 h; half-life ([1]; read-out: t1/2d: Distribution half-life (converted)): 0.54 h; ABC0-∞: Area under the curve from time zero to infinity [1]: 1152.0 ng·h/mL; ABCex: Percentage of area under the curve extrapolated to infinity [1]: 26.0%; ABCtz-∞: Area under the curve from the last sampling time to infinity [1]: 299.0 ng·h/mL; C1: Coefficient of the first exponential term [1]: 295.1 ng/mL; C2: Coefficient of the second exponential term [1]: 32.5 ng/mL; Cz: Coefficient of last exponential term [1]: 10.52 ng/mL; kd: first order apparent distribution constant [1]: 0.000356 s⁻¹; ke1: first order apparent elimination constant [1]: 0.035 h⁻¹; Docetaxel release, comparison between solutions [2]: released more decetaxel than the lipid nanoparticles; Hematocrit (New Zealand rabbits; Sample 1 (day -1)): 40%; MCH (New Zealand rabbits; Sample 1 (day -1)): 20 pg; MCHC (New Zealand rabbits; Sample 1 (day -1)): 28 g/dL; MCV (New Zealand rabbits; Sample 1 (day -1)): 71 fL; Red Cells (New Zealand rabbits; Sample 1 (day -1)): 5.7 × 10^6/mm^3; White Blood Cells (New Zealand rabbits; Sample 1 (day -1)): 6720 /mm; Hematocrit (New Zealand rabbits; Sample 2 (day 1)): 37%; MCH (New Zealand rabbits; Sample 2 (day 1)): 20 pg; MCHC (New Zealand rabbits; Sample 2 (day 1)): 28 g/dL; MCV (New Zealand rabbits; Sample 2 (day 1)): 71 fL; Red Cells (New Zealand rabbits; Sample 2 (day 1)): 5.2 × 10^6/mm^3; White Blood Cells (New Zealand rabbits; Sample 2 (day 1)): 6175 /mm; Hematocrit (New Zealand rabbits; Sample 3 (day 6)): 37%; MCH (New Zealand rabbits; Sample 3 (day 6)): 20 pg; MCHC (New Zealand rabbits; Sample 3 (day 6)): 28 g/dL; MCV (New Zealand rabbits; Sample 3 (day 6)): 70 fL; Red Cells (New Zealand rabbits; Sample 3 (day 6)): 5.2 × 10^6/mm^3; White Blood Cells (New Zealand rabbits; Sample 3 (day 6)): 3800 /mm; Hematocrit (New Zealand rabbits; Sample 4 (day 8)): 39%; MCH (New Zealand rabbits; Sample 4 (day 8)): 19 pg; MCHC (New Zealand rabbits; Sample 4 (day 8)): 25 g/dL; MCV (New Zealand rabbits; Sample 4 (day 8)): 69 fL; Red Cells (New Zealand rabbits; Sample 4 (day 8)): 5.6 × 10^6/mm^3; White Blood Cells (New Zealand rabbits; Sample 4 (day 8)): 3500 /mm; Hematocrit (New Zealand rabbits; Sample 5 (day 13)): 24%; MCH (New Zealand rabbits; Sample 5 (day 13)): 19 pg; MCHC (New Zealand rabbits; Sample 5 (day 13)): 28 g/dL; MCV (New Zealand rabbits; Sample 5 (day 13)): 69 fL; Red Cells (New Zealand rabbits; Sample 5 (day 13)): 3.9 × 10^6/mm^3; White Blood Cells (New Zealand rabbits; Sample 5 (day 13)): 4000 /mm; Hematocrit (New Zealand rabbits; Sample 6 (day 15)): 31%; MCH (New Zealand rabbits; Sample 6 (day 15)): 20 pg; MCHC (New Zealand rabbits; Sample 6 (day 15)): 29 g/dL; MCV (New Zealand rabbits; Sample 6 (day 15)): 70 fL; Red Cells (New Zealand rabbits; Sample 6 (day 15)): 4.4 × 10^6/mm^3; White Blood Cells (New Zealand rabbits; Sample 6 (day 15)): 5500 /mm; Hematocrit (New Zealand rabbits; Sample 7 (day 20)): 19%; MCH (New Zealand rabbits; Sample 7 (day 20)): 20 pg; MCHC (New Zealand rabbits; Sample 7 (day 20)): 44 g/dL; MCV (New Zealand rabbits; Sample 7 (day 20)): 45 fL; Red Cells (New Zealand rabbits; Sample 7 (day 20)): 4.2 × 10^6/mm^3; White Blood Cells (New Zealand rabbits; Sample 7 (day 20)): 2900 /mm
